Consider four molecules from patent US6462038B1, “Androgen receptor modulator compounds and methods” (Ligand Pharmaceuticals, Inc., priority 1999, dated 2002).

A word on the pIC50: it is the negative decadic logarithm of the IC50, by convention in mol/L.

Holding throughout (type): cell-based
The target of one experiment is T1, GR (Homo sapiens, UniProt P04150).
T1 construct: expressed in transfected cells; host or cells: CV-1 cells
T1 sequence (P04150 1-777): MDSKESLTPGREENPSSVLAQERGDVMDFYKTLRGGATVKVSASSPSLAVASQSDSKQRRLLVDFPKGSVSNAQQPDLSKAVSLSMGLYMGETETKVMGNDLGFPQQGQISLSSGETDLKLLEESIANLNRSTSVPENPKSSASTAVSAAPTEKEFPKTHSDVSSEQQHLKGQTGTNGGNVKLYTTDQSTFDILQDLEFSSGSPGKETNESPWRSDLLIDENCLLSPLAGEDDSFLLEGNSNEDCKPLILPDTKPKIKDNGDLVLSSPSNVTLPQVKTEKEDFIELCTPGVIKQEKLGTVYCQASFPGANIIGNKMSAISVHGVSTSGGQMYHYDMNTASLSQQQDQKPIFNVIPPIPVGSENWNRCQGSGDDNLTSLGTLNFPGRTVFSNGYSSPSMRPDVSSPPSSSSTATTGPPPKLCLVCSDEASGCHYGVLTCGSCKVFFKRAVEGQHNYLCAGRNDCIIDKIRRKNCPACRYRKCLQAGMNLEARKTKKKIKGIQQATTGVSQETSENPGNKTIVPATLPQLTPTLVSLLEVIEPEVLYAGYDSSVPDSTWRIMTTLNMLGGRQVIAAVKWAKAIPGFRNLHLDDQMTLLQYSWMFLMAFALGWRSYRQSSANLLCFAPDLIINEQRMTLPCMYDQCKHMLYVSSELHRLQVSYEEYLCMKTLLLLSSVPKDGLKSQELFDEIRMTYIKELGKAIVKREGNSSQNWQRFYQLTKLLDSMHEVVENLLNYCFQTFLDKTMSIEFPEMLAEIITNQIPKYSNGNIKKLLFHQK
The experiment in a line: co-transfection assay, GR antagonist. As to the method: (§1) CV-1 cells (African green monkey kidney fibroblasts) were cultured in the presence of Dulbecco's Modified Eagle Medium (DMEM) supplemented with 10% charcoal resin-stripped fetal bovine serum (CH-FBS) then transferred to 96-well microtiter plates one day prior to transfection.
(§2) Three to four replicates were used for each sample.
(§3) After 40 hours, the cells were washed with PBS, lysed with a Triton X-100-based buffer and assayed for LUC and β-Gal activities using a luminometer or spectrophotometer, respectively. For each replicate, the normalized response (NR) was calculated as: […]

Experiment [1] deals with T2, hAR (Homo sapiens, UniProt P10275).
T2 construct: expressed in transfected cells; host or cells: CV-1 cells (African green monkey kidney fibroblasts)
T2 sequence (P10275 1-920): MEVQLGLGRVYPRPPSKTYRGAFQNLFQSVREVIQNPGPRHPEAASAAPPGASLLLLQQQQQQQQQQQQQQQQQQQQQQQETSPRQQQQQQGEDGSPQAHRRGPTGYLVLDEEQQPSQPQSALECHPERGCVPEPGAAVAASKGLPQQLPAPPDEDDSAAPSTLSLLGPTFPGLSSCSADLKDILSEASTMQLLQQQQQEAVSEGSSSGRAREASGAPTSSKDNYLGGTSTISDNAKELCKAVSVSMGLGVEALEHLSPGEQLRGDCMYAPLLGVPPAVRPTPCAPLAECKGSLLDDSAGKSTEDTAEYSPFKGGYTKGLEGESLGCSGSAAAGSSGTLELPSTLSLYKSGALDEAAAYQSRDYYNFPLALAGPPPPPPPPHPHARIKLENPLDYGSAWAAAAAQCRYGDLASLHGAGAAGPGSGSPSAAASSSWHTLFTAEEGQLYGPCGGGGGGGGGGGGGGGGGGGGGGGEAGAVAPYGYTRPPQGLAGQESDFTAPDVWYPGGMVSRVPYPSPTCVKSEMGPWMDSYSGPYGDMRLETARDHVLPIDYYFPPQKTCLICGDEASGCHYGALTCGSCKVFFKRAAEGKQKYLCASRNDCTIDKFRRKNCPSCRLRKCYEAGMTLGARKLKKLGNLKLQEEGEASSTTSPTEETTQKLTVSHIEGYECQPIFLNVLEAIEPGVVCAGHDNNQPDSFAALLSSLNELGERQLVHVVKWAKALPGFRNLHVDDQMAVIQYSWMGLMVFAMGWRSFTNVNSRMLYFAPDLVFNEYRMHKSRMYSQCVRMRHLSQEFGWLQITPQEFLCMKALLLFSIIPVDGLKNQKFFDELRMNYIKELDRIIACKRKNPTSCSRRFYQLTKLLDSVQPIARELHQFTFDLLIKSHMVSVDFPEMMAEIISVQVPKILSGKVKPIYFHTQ
The experiment is described as follows: co-transfection assay, AR agonist, CV-1 cells. The note with it: for AR Agonist CV-1 Cells Efficacy (%): hAR in CV-1 cells, relative to maximum LUC production by reference agonist.

The target of experiment [2] is T2, hAR. The experiment in a line: co-transfection assay, AR antagonist (in presence of DHT), CV-1 cells. The note with it: for AR Antagonist CV-1 Cells Efficacy (%): hAR in CV-1 cells, maximal inhibition, DHT at EC50.
Another experiment has as its target T3, PR (Homo sapiens, UniProt P06401).
T3 construct: expressed in transfected cells; host or cells: CV-1 cells
T3 sequence (P06401 1-933): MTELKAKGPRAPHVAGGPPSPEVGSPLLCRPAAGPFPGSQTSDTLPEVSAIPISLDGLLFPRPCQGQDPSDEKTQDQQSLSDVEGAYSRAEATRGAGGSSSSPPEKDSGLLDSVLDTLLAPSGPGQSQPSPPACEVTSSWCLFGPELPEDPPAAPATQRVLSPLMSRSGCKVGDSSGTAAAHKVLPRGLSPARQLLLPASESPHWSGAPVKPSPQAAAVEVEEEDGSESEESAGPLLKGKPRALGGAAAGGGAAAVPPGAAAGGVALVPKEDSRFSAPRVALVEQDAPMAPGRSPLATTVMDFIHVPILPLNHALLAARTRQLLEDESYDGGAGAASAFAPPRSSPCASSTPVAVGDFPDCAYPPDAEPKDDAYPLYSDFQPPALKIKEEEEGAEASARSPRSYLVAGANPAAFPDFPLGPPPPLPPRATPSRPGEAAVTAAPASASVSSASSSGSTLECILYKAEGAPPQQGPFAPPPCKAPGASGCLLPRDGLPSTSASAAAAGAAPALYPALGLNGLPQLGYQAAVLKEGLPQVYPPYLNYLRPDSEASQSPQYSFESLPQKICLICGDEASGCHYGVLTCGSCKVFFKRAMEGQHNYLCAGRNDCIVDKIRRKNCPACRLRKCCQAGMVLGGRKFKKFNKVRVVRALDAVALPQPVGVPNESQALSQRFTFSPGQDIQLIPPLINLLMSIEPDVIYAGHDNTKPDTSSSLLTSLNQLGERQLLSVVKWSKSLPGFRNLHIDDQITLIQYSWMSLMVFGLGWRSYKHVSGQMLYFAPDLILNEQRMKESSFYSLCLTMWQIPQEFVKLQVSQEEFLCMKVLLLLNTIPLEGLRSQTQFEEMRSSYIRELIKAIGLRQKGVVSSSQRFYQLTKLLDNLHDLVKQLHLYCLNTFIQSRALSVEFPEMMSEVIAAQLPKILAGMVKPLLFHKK
The experiment in a line: co-transfection assay, PR agonist. The procedure: as §1, §2, §3

The mark [3] stands for this setting: read-out: AR Potency Agon, Table 2.

pEC50, pIC50: −log10 of the molar value. Like-named read-outs stand apart in the source and are kept apart here. A value given as a limit tells only on which side of the number the result lay.

Take `CN1CCOc2cc3c(cc21)c(C(F)(F)F)cc(=O)n3C` [Compound 102, 1,2,3,6-Tetrahydro-1,6-dimethyl-9-(trifluoromethyl)-7H-[1,4]oxazino[3,2-g]quinolin-7-one]: the results for the pIC50 on GR and on hAR [2] were 5.49 and 7.66, respectively. For the same molecule, the pEC50 at hAR [1], at hAR [1] (setting [3]) and on PR was less than 5.00 throughout. Also, the “AR Agonist CV-1 Cells Efficacy (%)” value on hAR [1] was “na^1 (na = not active (i.e. efficacy of < 20 and potency of > 10,000 nM for the cotransfection assay, and Ki > 1000 nM for the binding assay))”. Also, the “AR Antagonist CV-1 Cells Efficacy (%)” value at hAR [2] came out at 58%.
For the molecule `CCN1CCOc2cc3c(cc21)c(C(F)(F)F)cc(=O)n3C` [Compound 104, 1-Ethyl-1,2,3,6-tetrahydro-6-methyl-9-(trifluoromethyl)-7H-[1,4]oxazino[3,2-g]quinolin-7-one], the pIC50 is 6.08 against GR and 7.59 on hAR [2]. The pEC50 at hAR [1], at hAR [1] (setting [3]) and on PR was less than 5.00 each time. In addition, the “AR Agonist CV-1 Cells Efficacy (%)” value on hAR [1] was “na (na = not active (i.e. efficacy of < 20 and potency of > 10,000 nM for the cotransfection assay, and Ki > 1000 nM for the binding assay))”. The “AR Antagonist CV-1 Cells Efficacy (%)” value at hAR [2] was 68%.
Molecule `O=c1cc(C(F)(F)F)c2cc3c(cc2[nH]1)OCCN3CC(F)(F)F` [Compound 105, 1,2,3,6-Tetrahydro-1-(2,2,2-trifluoroethyl)-9-(trifluoromethyl)-7H-[1,4]oxazino[3,2-g]quinolin-7-one] had a negative logarithm of the IC50 (pIC50) against GR of 5.17. In addition, at PR, the pEC50 was less than 5.00.
In the case of `O=C1COc2cc3[nH]c(=O)cc(C(F)(F)F)c3cc2N1CC(F)(F)F` [Compound 137, 1,6-Dihydro-1-(2,2,2-trifluoroethyl)-9-(trifluoromethyl)-3H-[1,4]oxazino[3,2-g]-quinolin-2,7-dione], the figures for the pIC50 at GR and on hAR [2] were less than 5.00 and 7.74, respectively. Also, the pEC50 on hAR [1], at hAR [1] (setting [3]) and on PR was less than 5.00 in each case. Further, the “AR Agonist CV-1 Cells Efficacy (%)” value on hAR [1] was “na (na = not active (i.e. efficacy of < 20 and potency of > 10,000 nM for the cotransfection assay, and Ki > 1000 nM for the binding assay))”. Also, the “AR Antagonist CV-1 Cells Efficacy (%)” value at hAR [2] was 84%.
